From patent US20150196562A1, “FORMULATIONS OF 3-(5-AMINO-2-METHYL-4-OXO-4H-QUINAZOLIN-3-YL)-PIPERIDINE-2,6-DIONE” (Celgene Corporation, priority 2014, published 2015)

Test: Degradation of Compound A by hydrolysis
Type: physicochemical
Conditions: water
Source text: Also provided herein are anhydrous pharmaceutical compositions and dosage forms including an active ingredient, since water can facilitate the degradation of some compounds. For example, the addition of water (e.g., 5 percent) is widely accepted in the pharmaceutical arts as a means of simulating shelf-life, i.e., long-term storage in order to determine characteristics such as shelf-life or the stability of formulations over time. See, e.g., Jens T. Carstensen, Drug Stability: Principles & Practice, 2d. Ed., Marcel Dekker, NY, N.Y., 1995, pp. 379-80. In effect, water and heat accelerate decomposition. Thus, the effect of water on a formulation can be of great significance since moisture and/or humidity are commonly encountered during manufacture, handling, packaging, storage, shipment, and use of formulations.

degradation by hydrolysis: easily degraded by hydrolysis
SMILES: Cc1nc2cccc(N)c2c(=O)n1C1CCC(=O)NC1=O (stereo not shown) [Compound A, 3-(5-amino-2-methyl-4-oxo-4H-quinazolin-3-yl)-piperidine-2,6-dione]
